Activity calls are given as the source filed them. The rule behind the calls is not given here.
How the values were obtained:
Acetylcholinesterase [1] = molecular target: T1, Acetylcholinesterase (Electrophorus electricus, UniProt O42275)
Description: (§1) Inhibition of electric eel AChE by Ellman's method

Cholinesterase [2] = molecular target: T2, Cholinesterase (Equus caballus, UniProt P81908)
Description: (§2) Inhibition of horse serum BChE by Ellman's method

Acetylcholinesterase [3] = molecular target: T1, Acetylcholinesterase; remark: listed apart in the source
Description: as §1

Cholinesterase [4] = molecular target: T2, Cholinesterase; remark: listed apart in the source
Description: as §2

[5] = molecular target: Cholinesterase (Equus caballus) (UniProt P81908); assay: Inhibition of horse serum BChE at 40 uM by Ellman's method
Chain of Cholinesterase (Equus caballus) (P81908 whole entry): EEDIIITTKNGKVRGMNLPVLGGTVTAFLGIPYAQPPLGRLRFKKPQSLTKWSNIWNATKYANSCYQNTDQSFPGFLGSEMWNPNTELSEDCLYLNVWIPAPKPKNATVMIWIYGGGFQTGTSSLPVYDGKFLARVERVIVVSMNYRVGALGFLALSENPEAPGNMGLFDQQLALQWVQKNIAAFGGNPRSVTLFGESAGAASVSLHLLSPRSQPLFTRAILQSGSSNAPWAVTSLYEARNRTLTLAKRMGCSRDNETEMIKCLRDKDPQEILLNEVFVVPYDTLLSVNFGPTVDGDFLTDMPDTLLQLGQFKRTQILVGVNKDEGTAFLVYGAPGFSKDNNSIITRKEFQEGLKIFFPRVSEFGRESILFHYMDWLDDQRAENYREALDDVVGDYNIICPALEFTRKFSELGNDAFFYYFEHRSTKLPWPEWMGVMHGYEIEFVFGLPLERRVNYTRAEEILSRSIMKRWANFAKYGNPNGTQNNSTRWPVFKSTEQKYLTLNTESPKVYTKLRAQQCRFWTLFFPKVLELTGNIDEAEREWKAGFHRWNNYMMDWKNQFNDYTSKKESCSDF

[6] = molecular target: Cholinesterase (Equus caballus) (UniProt P81908); assay: Inhibition of horse serum BChE at 100 uM by Ellman's method
[7] = molecular target: Acetylcholinesterase (Electrophorus electricus) (UniProt O42275); assay: Mixed type inhibition of electric eel AChE by Ellman's method
Chain of Acetylcholinesterase (Electrophorus electricus) (O42275 24-633 limits assumed): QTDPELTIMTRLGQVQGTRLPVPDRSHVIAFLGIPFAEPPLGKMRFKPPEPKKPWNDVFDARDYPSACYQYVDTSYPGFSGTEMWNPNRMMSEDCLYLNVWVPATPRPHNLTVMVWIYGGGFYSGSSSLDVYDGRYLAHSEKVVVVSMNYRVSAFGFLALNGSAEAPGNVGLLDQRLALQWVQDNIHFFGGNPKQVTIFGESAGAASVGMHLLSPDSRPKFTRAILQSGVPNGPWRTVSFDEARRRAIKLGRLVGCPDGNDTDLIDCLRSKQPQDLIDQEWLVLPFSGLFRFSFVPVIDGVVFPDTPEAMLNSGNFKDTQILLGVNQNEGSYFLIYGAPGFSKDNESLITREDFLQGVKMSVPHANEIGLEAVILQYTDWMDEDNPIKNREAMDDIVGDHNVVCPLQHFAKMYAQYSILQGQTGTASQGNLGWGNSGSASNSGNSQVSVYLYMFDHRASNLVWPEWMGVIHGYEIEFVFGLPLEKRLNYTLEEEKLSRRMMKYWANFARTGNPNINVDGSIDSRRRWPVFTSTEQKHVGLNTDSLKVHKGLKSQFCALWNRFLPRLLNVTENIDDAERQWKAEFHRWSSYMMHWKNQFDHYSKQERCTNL

Cholinesterase [8] = molecular target: T2, Cholinesterase; assay: Inhibition of horse serum BChE by Lineweaver-Burke plot
[9] = molecular target: Cholinesterase (Equus caballus) (UniProt P81908); assay: Mixed type inhibition of horse serum BChE by Ellman's method
[10] = molecular target: Cholinesterase (Equus caballus) (UniProt P81908); assay: Inhibition of horse serum BChE at 70 uM by Ellman's method
[11] = molecular target: Acetylcholinesterase (Electrophorus electricus) (UniProt O42275); assay: Inhibition of electric eel AChE at 100 uM by Ellman's method
[12] = molecular target: Cholinesterase (Equus caballus) (UniProt P81908); assay: Inhibition of horse serum BChE at 15 uM by Ellman's method
[13] = molecular target: Cholinesterase (Equus caballus) (UniProt P81908); assay: Inhibition of horse serum BChE at 30 uM by Ellman's method

T2 sequence (P81908 whole entry): as the sequence (P81908 whole entry) above
T1 sequence (O42275 whole entry): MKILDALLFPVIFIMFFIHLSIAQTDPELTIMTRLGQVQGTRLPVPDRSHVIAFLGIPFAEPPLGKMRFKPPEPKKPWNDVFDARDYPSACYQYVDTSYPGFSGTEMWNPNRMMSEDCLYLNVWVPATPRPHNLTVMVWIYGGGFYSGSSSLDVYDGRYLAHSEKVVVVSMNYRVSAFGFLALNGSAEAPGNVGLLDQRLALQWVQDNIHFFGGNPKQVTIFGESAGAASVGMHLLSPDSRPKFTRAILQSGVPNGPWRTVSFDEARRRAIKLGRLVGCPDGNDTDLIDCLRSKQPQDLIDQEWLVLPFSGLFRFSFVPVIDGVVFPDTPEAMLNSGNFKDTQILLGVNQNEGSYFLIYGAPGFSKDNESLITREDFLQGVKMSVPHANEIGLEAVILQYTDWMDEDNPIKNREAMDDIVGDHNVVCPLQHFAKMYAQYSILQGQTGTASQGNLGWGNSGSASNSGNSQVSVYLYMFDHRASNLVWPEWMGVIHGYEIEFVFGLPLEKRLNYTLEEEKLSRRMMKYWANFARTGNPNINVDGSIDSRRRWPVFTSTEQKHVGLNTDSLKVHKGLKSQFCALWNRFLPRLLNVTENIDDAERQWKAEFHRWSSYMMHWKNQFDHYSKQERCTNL

`Cc1ccc(C)c(C(=O)CC(C(=O)Nc2ccccc2)N2CCOCC2)c1` (racemic) was tested, and the IC50 (Acetylcholinesterase [1]) was > 100 µM and the IC50 (Cholinesterase [2]) was 34.1 µM.
For `O=C(CC(C(=O)Nc1ccccc1)N1CCCCC1)c1ccc(Cl)cc1` (racemic), the IC50 (Acetylcholinesterase [3]) was “ND(Insoluble)” and the IC50 (Cholinesterase [4]) was “ND(Insoluble)”.
For `Cc1ccc(C)c(C(=O)CC(C(=O)Nc2ccccc2)N2CCCCC2)c1` (racemic), the IC50 (Acetylcholinesterase [1]) was > 10 µM and the IC50 (Cholinesterase [2]) was 17.2 µM.
In the case of `O=C(CC(NCCCCCCCCNC(CC(=O)c1ccc(Cl)cc1)C(=O)Nc1ccccc1)C(=O)Nc1ccccc1)c1ccc(Cl)cc1` (mixture of isomers), the IC50 (Acetylcholinesterase [3]) is reported as “ND(Insoluble)” and the IC50 (Cholinesterase [4]) is reported as “ND(Insoluble)”.
With `CC(C)c1ccc(C(=O)CC(C(=O)Nc2ccccc2)N2CCOCC2)cc1` (racemic) the IC50 (Acetylcholinesterase [1]) was > 100 µM and the inhibition [5] was 27.2%.
For `O=C(CC(C(=O)Nc1ccccc1)N1CCCCC1)c1ccccc1` (racemic), the IC50 (Acetylcholinesterase [1]) was > 100 µM and the inhibition [6] was 34.8%.
In the case of `CC(C)c1ccc(C(=O)CC(C(=O)Nc2ccccc2)N2CCOCC2)c(C(C)C)c1` (racemic), the inhibition [7] is reported as “Active”, the Ki (Cholinesterase [8]) is reported as 3.18 µM and the inhibition [9] is reported as “Active”. For the same compound, the IC50 (Cholinesterase [2]) was 2.48 µM.
`O=C(CC(C(=O)Nc1ccccc1)n1ccnc1)c1ccc(Cl)cc1` (racemic) was tested, and the IC50 (Acetylcholinesterase [3]) was “ND(Insoluble)” and the IC50 (Cholinesterase [4]) was “ND(Insoluble)”.
For `COc1ccc(C(=O)CC(NCCCCCCCCNC(CC(=O)c2ccc(OC)cc2)C(=O)Nc2ccccc2)C(=O)Nc2ccccc2)cc1` (mixture of isomers), the IC50 (Acetylcholinesterase [3]) was “ND(Insoluble)” and the IC50 (Cholinesterase [4]) was “ND(Insoluble)”.
`CC(C)c1ccc(C(=O)CC(NCCCCCCCCNC(CC(=O)c2ccc(C(C)C)cc2C(C)C)C(=O)Nc2ccccc2)C(=O)Nc2ccccc2)c(C(C)C)c1` (mixture of isomers) was tested, and the IC50 (Acetylcholinesterase [3]) was “ND(Insoluble)” and the IC50 (Cholinesterase [4]) was “ND(Insoluble)”.
In the case of `O=C(CC(C(=O)Nc1ccccc1)N1CCOCC1)c1ccccc1` (racemic), the IC50 (Acetylcholinesterase [1]) is reported as > 100 µM and the inhibition [6] is reported as 21.6%.
With `CC(C)c1ccc(C(=O)CC(C(=O)Nc2ccccc2)n2ccnc2)c(C(C)C)c1` (racemic) the inhibition [7] was “Active”, the inhibition [9] was “Active” and the IC50 (Cholinesterase [2]) was > 20 µM.
In the case of `COc1ccc(C(=O)CC(C(=O)Nc2ccccc2)n2ccnc2)cc1` (racemic), the IC50 (Acetylcholinesterase [1]) is reported as 7.85 µM and the IC50 (Cholinesterase [2]) is reported as 30.4 µM.
For `CC(C)c1ccc(C(=O)CC(NCCCCCCCCNC(CC(=O)c2ccc(C(C)C)cc2)C(=O)Nc2ccccc2)C(=O)Nc2ccccc2)cc1` (mixture of isomers), the IC50 (Acetylcholinesterase [3]) was “ND(Insoluble)” and the IC50 (Cholinesterase [4]) was “ND(Insoluble)”.
`Cc1ccc(C)c(C(=O)CC(C(=O)Nc2ccccc2)n2ccnc2)c1` (racemic) was tested, and the IC50 (Acetylcholinesterase [1]) was 27.9 µM and the inhibition [10] was 42%.
`Cc1ccc(C)c(C(=O)CC(NCCCCCCCCNC(CC(=O)c2cc(C)ccc2C)C(=O)Nc2ccccc2)C(=O)Nc2ccccc2)c1` (mixture of isomers) was tested, and the IC50 (Acetylcholinesterase [3]) was “ND(Insoluble)” and the IC50 (Cholinesterase [4]) was “ND(Insoluble)”.
`COc1ccc(C(=O)CC(C(=O)Nc2ccccc2)N2CCOCC2)cc1` (racemic) was tested, and the inhibition [11] was 38.7% and the IC50 (Cholinesterase [2]) was > 100 µM.
Work on `CC(C)c1ccc(C(=O)CC(C(=O)Nc2ccccc2)N2CCCCC2)c(C(C)C)c1` (racemic) yielded an inhibition [12] of 39.9%.
Compound `CC(C)c1ccc(C(=O)CC(C(=O)Nc2ccccc2)n2ccnc2)cc1` (racemic) has an inhibition [13] of 10%.
`O=C(CC(C(=O)Nc1ccccc1)N1CCCCC1)c1ccc2c(c1)CCCC2` (racemic) gave an inhibition [12] of 21.5%.
In the case of `O=C(CC(NCCCCCCCCNC(CC(=O)c1ccc2c(c1)CCCC2)C(=O)Nc1ccccc1)C(=O)Nc1ccccc1)c1ccc2c(c1)CCCC2` (mixture of isomers), the IC50 (Acetylcholinesterase [3]) is reported as “ND(Insoluble)” and the IC50 (Cholinesterase [4]) is reported as “ND(Insoluble)”.
Work on `O=C(CC(C(=O)Nc1ccccc1)n1ccnc1)c1ccc2c(c1)CCCC2` (racemic) yielded an inhibition [5] of 17%.
With `O=C(CC(C(=O)Nc1ccccc1)N1CCOCC1)c1ccc(Cl)cc1` (racemic) the IC50 (Acetylcholinesterase [3]) was “ND(Insoluble)” and the IC50 (Cholinesterase [4]) was “ND(Insoluble)”.
In the case of `O=C(CC(C(=O)Nc1ccccc1)N1CCOCC1)c1ccc2c(c1)CCCC2` (racemic), the IC50 (Acetylcholinesterase [1]) is reported as > 30 µM and the inhibition [5] is reported as 13%.
In the case of `COc1ccc(C(=O)CC(C(=O)Nc2ccccc2)N2CCCCC2)cc1` (racemic), the IC50 (Acetylcholinesterase [1]) is reported as > 10 µM and the IC50 (Cholinesterase [2]) is reported as > 40 µM.
With `CC(C)c1ccc(C(=O)CC(C(=O)Nc2ccccc2)N2CCCCC2)cc1` (racemic) the IC50 (Cholinesterase [2]) was 7.06 µM.

From ChEMBL document CHEMBL1156836, “4-Aryl-4-oxo-N-phenyl-2-aminylbutyramides as acetyl- and butyrylcholinesterase inhibitors. Preparation, anticholinesterase activity, docking study, and 3D structure-activity relationship based on molecular interaction fields” (Bioorg Med Chem, 2010)
